In brackets after ≈: the same amount, converted by molar mass.

The test system of assay [1] is FLV. Put plainly: Compound 1/Poly-I:C combination therapy against FLV-induced splenomegaly. It counts as in vivo, mice. The conditions noted are these: for reduction of splenomegaly: individual dosing. As to the method:
(§1) Female Balb/c mice are infected intraperitoneally with 0.2 ml of FLV suspension at a concentration predetermined to induce spleen weights of 1-2 grams in vehicle-treated control mice at 21 days post-infection. Beginning 24 hours post-infection, mice (10/group) are treated with 10-100 mg/kg of test compound in Sterile Normal Saline for injection (USP) as a carrier for either intraperitoneal, subcutaneous, intravenous or oral route administration. Treatment is given once a day, continuing through 7 days post-infection. AZT is used as a positive control compound. Uninfected, vehicle-treated mice serve as normal spleen controls, while virus-infected, vehicle-treated mice serve as infected spleen controls. At 21 days post-infection the mice are sacrificed and spleens are surgically excised and weighed. Results are expressed as Treated/Control (T/C), where control represents the means spleen weight of FLV-infected, vehicle-treated mice and is arbitrarily set to 1.0. The doses of test compounds required to inhibit virus-induced splenomegaly by 50% (ED50) are shown in Table 1 as compared to AZT the control compound.
FLV-infected mice are treated with compound 1 (1.25-20.00 mg/kg S.C. daily x 7d beginning one day post-infection alone or in combination with Poly-I:C (0.31-5.0 mg/kg ip daily x 7d beginning one day post-infection. Results are shown in Table 4.

Assay [2] concerns HIV-IIIB in ATH8 cells. Put plainly: HIV Infectivity Assay in ATH8 Cells (50% protection from virus-induced cytopathogenesis). It counts as cell-based. To be noted: for HIV Infectivity ATH8 IC50: ATH8 cells, HIV-IIIB, 10 days.
Assay [3] deals with Friend leukemia virus (FLV). Put plainly: XC plaque assay for quantitation of Friend leukemia virus (FLV) in vitro. It counts as cell-based. To be noted: for FLV In Vitro IC50: XC plaque formation.
In assay [4] the test system is Friend leukemia virus (FLV). Kind of assay: Splenomegaly assay for quantitation of Friend leukemia virus (FLV) in vivo. The conditions noted are these: for FLV In Vivo ED50: 50% inhibition of virus-induced splenomegaly, once a day through 7 days post-infection, 30240 min. More on the design: species or system Female Balb/c mice.
Assay [5] has as its system FLV. Put plainly: Combination therapy with AZT against FLV-induced splenomegaly. Type of assay: in vivo, mice. As to the method: as §1
Since AZT is currently approved for the clinical treatment of HIV/AIDS, a combination therapy of AZT and the compounds of the present invention for the treatment of retrovirus and, particularly HIV/AIDS, may be a favorable alternative treatment plan. In order to determine how effective the compounds would be if given together, the following study was done.
FLV-infected mice are treated with compound 1 (0.8-20 mg/kg), alone or in combination with AZT (8-200 mg/kg). Starting one day post-infection compounds are given once daily for seven days. Compound 1 is administered subcutaneously (sc) while AZT is administered intraperitoneally (ip) in order not to physically mix the compounds at the same site.

The test system of assay [6] is FLV. Kind of assay: Alternate dosing regimen with combination therapy with AZT against FLV-induced splenomegaly. Type of assay: in vivo, mice.
For assay [7], the system named is HIV-IIIB in H9 cells (reverse transcriptase). Kind of assay: HIV Infectivity Assay in H9 Cells (HIV reverse transcriptase production). It counts as cell-based. The conditions noted are these: day 10.
The test system of assay [8] is Rauscher leukemia virus (RLV). Put plainly: Splenomegaly assay for quantitation of Rauscher leukemia virus (RLV) in vivo. More on the design: species or system Female BALB/c mice. To be noted: 50% inhibition of virus-induced splenomegaly, ip, once a day through 14 days post-infection; 30240 min. An excerpt:
Treatment is given once a day, continuing through 14 days post-infection. Ribavirin is used as a positive control compound. Uninfected, vehicle-treated mice serve as normal spleen controls, while infected, vehicle-treated mice serve as infected spleen controls. At 21 days post-infection the mice are sacrificed and spleens are surgically excised and weighed.

Assay [9] concerns SIV. Put plainly: Activity against SIV. Type of assay: cell-based.
The test system of assay [10] is LPBM-5. Put plainly: Activity against LPBM-5 in vivo.

As for “PolyInosinic-PolyCytidylic Acid [Poly-I:C, reference compound]”, the “T/C (spleen weight)” value in assay [1] (Poly-I:C 0.31 mg/kg ip daily x 7 d, Cpd 1 0) stood at 1.2; in assay [1] (Poly-I:C 1.25 mg/kg ip daily x 7 d, Cpd 1 0) it was 1.1; in [1] (Poly-I:C 5.0 mg/kg ip daily x 7 d, Cpd 1 0), 0.39. Besides, in [1] (Poly-I:C 5 mg/kg), the reduction of splenomegaly was determined as 60%.

With K7 [Compound 6, K7 [PTi2 W10 O40]], the “HIV Infectivity ATH8 IC50” value in assay [2] was determined as 5.6 µg/mL. Also, the “FLV In Vitro IC50” value in [3] turned out to be 5 µg/mL. In [4], the “FLV In Vivo ED50” value is recorded as “IA (Inactive)”.

Turning to `Cc1cn([C@H]2C[C@H](N=[N+]=[N-])[C@@H](CO)O2)c(=O)[nH]c1=O` [AZT, 3'-Azido-3'-deoxythymidine, reference compound], the IC50 in assay [2] (Human immunodeficiency virus 1, IIIB, ATH-8, 240 h, read-out: HIV Infectivity ATH8 IC50) was 0.005 µg/mL (≈ 0.0187 µM); in assay [3] (read-out: FLV In Vitro IC50) it was 0.005 µg/mL (≈ 0.0187 µM). Also, in assay [2] (in vitro, data in Table 1), the “in vitro potency of AZT relative to the polyoxoanions” value is on record as “more potent in vitro than the polyoxoanions of the present invention”. The ED50 in assay [4] (Mus musculus, 504 h, read-out: FLV In Vivo ED50) worked out at 100 mg/kg. Further, the “T/C (spleen weight)” value in assay [5] (AZT 8 mg/kg ip, Cpd 1 0, days 1-7) is listed as 0.83; in assay [5] (AZT 40 mg/kg ip, Cpd 1 0, days 1-7), 0.69; in [5] (AZT 200 mg/kg ip, Cpd 1 0, days 1-7) it was 0.46; in [6] (AZT 12.5 mg/kg ip daily x 7 days, no Cpd 1 (Control)), 0.93; in [6] (AZT 50 mg/kg ip daily x 7 days, no Cpd 1 (Control)) it was 0.71; in assay [6] (AZT 200 mg/kg ip daily x 7 days, no Cpd 1 (Control)) it was 0.45. Besides, in assay [5] (AZT alone at 200 mg/kg), the “percent reduction in splenomegaly” value is recorded as “about 50%”. The reduction in splenomegaly in [6] (AZT alone) was 30-50%.

Take “1,2-K5 [Compound 2, 1,2-K5 [PV2 W10 O40]]”: in [2], the “HIV Infectivity ATH8 IC50” value turned out to be 1.0 µg/mL. Moreover, the “HIV Infectivity RT/H9 IC50” value in [7] was less than 10 µg/mL. Further, the “FLV In Vitro IC50” value in assay [3] was 2.5 µg/mL. Also, the “FLV In Vivo ED50” value in assay [4] is 10 to 20 mg/kg. In [8], the “RLV In Vivo ED50” value lay in the range of 15 to 20 mg/kg.

Consider K7 [Compound 3, K7 [BV^IV W11 O40]], for which the “HIV Infectivity ATH8 IC50” value in [2] came to 1.5 µg/mL. For the same compound, the “HIV Infectivity RT/H9 IC50” value in assay [7] was less than 10 µg/mL. Further, in assay [3], the “FLV In Vitro IC50” value amounted to 0.1 µg/mL. Besides, the “FLV In Vivo ED50” value in assay [4] is listed as 7.5 mg/kg.

K6 [Compound 5, K6 [SiTiW11 O40]]: the “HIV Infectivity ATH8 IC50” value in assay [2] worked out at 3.2 µg/mL. Also, the “FLV In Vitro IC50” value in [3] was determined as 3 µg/mL. For the same compound, the “FLV In Vivo ED50” value in [4] stood at 20 mg/kg.

On to β-Cs5 [Compound 4, β-Cs5 [PV2 W10 O40]], for which the “HIV Infectivity ATH8 IC50” value in assay [2] is 1.6 µg/mL. For the same compound, the “HIV Infectivity RT/H9 IC50” value in [7] is less than 10 µg/mL. Besides, in assay [3], the “FLV In Vitro IC50” value turned out to be 7 µg/mL. In addition, the “FLV In Vivo ED50” value in [4] is 10 to 20 mg/kg.

As to “K9 (NH4)H2 [Compound 8, K9 (NH4)H2 [(OCe)3 (PW9 O34)2]]”, the “HIV Infectivity ATH8 IC50” value in [2] stood at 1.0 µg/mL. The “FLV In Vitro IC50” value in [3] was 10 µg/mL. Besides, the “FLV In Vivo ED50” value in [4] fell in the range of 10 to 20 mg/kg.

Take K6 [Compound 1, K6 [BVW11 O40]]: the “HIV Infectivity ATH8 IC50” value in [2] was found to be 1.0 µg/mL. Moreover, the “HIV Infectivity RT/H9 IC50” value in assay [7] was less than 10 µg/mL. Further, in [3], the “FLV In Vitro IC50” value was determined as 1 µg/mL. For the same compound, the “FLV In Vivo ED50” value in assay [4] is 10 to 20 mg/kg. The “RLV In Vivo ED50” value in assay [8] fell in the range of 10 to 20 mg/kg. In addition, the “IC50 against SIV” value in assay [9] was less than 1 µg/mL. In addition, the “ED50 against LPBM-5 in vivo” value in assay [10] is 10 to 20 mg/kg. Also, the “T/C (spleen weight)” value turned out to be 1.0 in assay [5] (Cpd 1 0.8 mg/kg sc, AZT 0, days 1-7); 0.94 in assay [5] (Cpd 1 4.0 mg/kg sc, AZT 0, days 1-7); 0.52 in assay [5] (Cpd 1 20.0 mg/kg sc, AZT 0, days 1-7); 0.21 in [6] (Cpd 1 80 mg/kg S.C. days 1 & 10, AZT 0); 0.17 in [6] (Cpd 1 80 mg/kg S.C. days 1 & 14, AZT 0); 0.5 in assay [6] (Cpd 1 80 mg/kg S.C. days 1 & 17, AZT 0). Moreover, the “T/C (spleen weight)” value in assay [1] (Cpd 1 1.25 mg/kg S.C. daily x 7 days, Poly-I:C 0) is 0.8; in assay [1] (Cpd 1 5.0 mg/kg S.C. daily x 7 days, Poly-I:C 0), 0.58; in assay [1] (Cpd 1 20.0 mg/kg S.C. daily x 7 days, Poly-I:C 0), 0.33. For the same compound, in assay [5] (compound 1 alone at 20 mg/kg), the “percent reduction in splenomegaly” value is recorded as “about 50%”. Moreover, the “efficacy of two doses administered alone” value in [6] (two doses of compound 1 alone, 10-17 days apart) is recorded as “efficacious”. The reduction of splenomegaly in [1] (compound 1 20 mg/kg) turned out to be 60%.

On to Na12 [Compound 7, Na12 [P2 W15 O62]], for which the “HIV Infectivity ATH8 IC50” value in [2] was found to be 2.6 µg/mL. Further, in assay [4], the “FLV In Vivo ED50” value was more than 20 mg/kg.

(Values after patent US5093327A, “Inhibition of HIV and other retroviruses by polyoxoanions” (Du Pont Merck Pharmaceutical Company, priority 1991, dated 1992).)
